This note sets out measurements from article PMC9818021, “Targets, Mechanisms and Cytotoxicity of Half-Sandwich Ir(III) Complexes Are Modulated by Structural Modifications on the Benzazole Ancillary Ligand” (Cancers, 2022).

In data set [1] the test system is caspases 3/7. As to the kind of experiment: Caspase 3/7 detection (CellEvent). It counts as cell-based, human. To be noted: A549, 16 µM, up to 24 h. Here is the method:
Specific assays with 1[C,NH] complex were performed according to manufacturer’s instructions using the following reagents from Molecular Probes (Thermo Fisher Scientific): Measurements of ROS: Dihydroethidium (DHE, D11347) and 2′, 7′-dichlorodihydrofluorescein diacetate (H2DCFDA, D399); detection of caspases 3/7: CellEvent Caspase-3/7 Green Detection Reagent (C10423); Cell viability: Live/Dead Cell Imaging Kit (R37601); Analysis of cytosolic calcium concentration: Fluo3/AM (F23915); Analysis of MMP: Tetramethylrhodamine methyl ester perchlorate (TMRM, T668). RT-qPCR’s assays were performed with the following primers/probes from Thermo Fisher Scientific: DCP1A (Hs00218198-m1), FOSB (Hs00171851-m1), EGR1(Hs0015928-m1), ATF3 (Hs00231069-m1), DDIT3 (Hs00358796-g1), PP1R15A (Hs00169585-m1), CHAC1(Hs00225520-m1), MIR9-1 (Hs04231512-s1), ATP1B2 (Hs00155922-m1), BBC3 (Hs00248075-m1), BCL2L11 (Hs00798019-s1), PMAIP1 (Hs00560402-m1), SKP2 (Hs01021864-m1) and HIST1H1B (Hs00271207-s1). RT-qPCR experiments were performed as described.

Data set [2] is described as follows: Drug uptake by cells (ICP-MS). It counts as cell-based. To be noted: 16 μM, 400,000 cells, 4 h. The protocol: 1[C,NH] reduced the lung tumor burden. Prior the performance of in vivo studies, the drug uptake was determined. The amount of 1[C,NH] entering the cell was estimated after administration of 16 μM of 1[C,NH] to 400,000 cells. The intracellular iridium content was assessed after 4 h by ICP-MS, and the percentage of drug taken up by cells was 1.7%. Then, acute toxicity and bio distribution of 1[C,NH] was studied in healthy mice (BALB/c). […] Antitumor efficacy was studied using an orthotopic model of lung cancer in nude mice (Figure 8B). A549-luc cells (A549 cells marked with luciferase) were used to induce the tumor and 20 days after the injection of cells, we proceeded to the administration of 4 doses (0.9 mg/kg) of 1[C,NH] on alternate days. […] However, we cannot exclude the appearance of toxic effects after repeated administrations over longer periods of time. […] To differentiate the effect of 1[C,NH] on the primary tumor and on the affected nodes, at day 37, the animals were sacrificed, and luciferase activity, as a marker on the presence of tumor cells, was measured. […] Moreover, lung mice were stained with a monoclonal antibody against a human cytokeratin (only A549 tumor cells of human origin were stained) (Figure 8D). […] In addition, other factors influence the efficacy of a drug on the primary tumor and not on the metastasis, cell-cell interactions, matrix in the nodes, etc. […]

The test system of data set [3] is A549 cells. As to the kind of experiment: DNA damage by phosphorylated H2AX, flow cytometry. It counts as cell-based, human. To be noted: 4 h. Here is the method:
DNA damage was measured using EpiQuik 8-OHdG DNA Damage Quantification Direct Kit (colorimetric) (Fischer, Waltham, MA, USA, P600396); The mitochondrial cytochrome C release was evaluated using the “Millipore’s FlowCellect Cytochrome C Kit (Millipore, FCCH100110)”. Lactate dehydrogenase activity release was measured in the culture medium using Cytotoxicity Detection Kit (Roche Diagnostic, Barcelona, Spain, 11 644 793 001). Protein synthesis was determined using Click-iT Plus O-propargyl-puromycin (OPP) Protein Synthesis Assay Kit (Invitrogen™, Waltham, MA, USA). Measurement of GSH/GSSG was determined with GSH/GSSG-Glo Assay (Promega, V6611). Measurements of OCR and ECAR with Seahorse XFp (Agilent Technologies) were determined using the XFp Cell Mito Stress Test Kit (103010-100) and XFp Glycolysis Stress Test Kit (103017-100). ATP measurement was determined with Cell Titer-Glo Luminescent Cell Viability Assay (Promega, Madison, WI, USA, G7570). Determination of DNA damage using phosphorylated H2AX measurement were performed as previously described. Cardiolipin oxidation using the fluorophore Nonyl Acridine Orange (NAO, Thermo Scientific, A1372) was performed as described. Cell viability was determined by Hoechst inclusion and Propidium iodide (PI) exclusion by standard protocols. TEM analysis were performed as described. Cell cycle analysis by flow cytometry and microarrays analysis were performed as described. Arrays data have been deposited in the ArrayExpress database at EMBL-EBI (www.ebi.ac.uk/arrayexpress) under accession number E-MTAB-860 (10 November 2022)
For orientation: A flow cytometer gives signals particle by particle.

The subject of data set [4] is A549 cells. As to the kind of experiment: Protein synthesis (Click-iT OPP). It counts as cell-based, human. The note with it: 16 µM, 6 h. The protocol: (§1) DNA damage was measured using EpiQuik 8-OHdG DNA Damage Quantification Direct Kit (colorimetric) (Fischer, Waltham, MA, USA, P600396); The mitochondrial cytochrome C release was evaluated using the “Millipore’s FlowCellect Cytochrome C Kit (Millipore, FCCH100110)”. Lactate dehydrogenase activity release was measured in the culture medium using Cytotoxicity Detection Kit (Roche Diagnostic, Barcelona, Spain, 11 644 793 001). Protein synthesis was determined using Click-iT Plus O-propargyl-puromycin (OPP) Protein Synthesis Assay Kit (Invitrogen™, Waltham, MA, USA). Measurement of GSH/GSSG was determined with GSH/GSSG-Glo Assay (Promega, V6611). Measurements of OCR and ECAR with Seahorse XFp (Agilent Technologies) were determined using the XFp Cell Mito Stress Test Kit (103010-100) and XFp Glycolysis Stress Test Kit (103017-100). ATP measurement was determined with Cell Titer-Glo Luminescent Cell Viability Assay (Promega, Madison, WI, USA, G7570). Determination of DNA damage using phosphorylated H2AX measurement were performed as previously described. Cardiolipin oxidation using the fluorophore Nonyl Acridine Orange (NAO, Thermo Scientific, A1372) was performed as described. Cell viability was determined by Hoechst inclusion and Propidium iodide (PI) exclusion by standard protocols. TEM analysis were performed as described. […]

Data set [5] deals with A549 cells. As to the kind of experiment: ATP levels (Cell Titer-Glo). The note with it: 16 µM, 8 h incubation. Format: cell-based, human. The protocol: as §1

As for `Cc1c(C)c(C)[c-](C)c1C.[Cl][Ir]1[c]2ccccc2-c2[nH]c3ccccc3[n+]21` [1[C,NH], [(η^5-Cp*)IrCl(κ^2-N,C-pbim)]], the “Caspase 3/7 activity” value in data set [1] was “induced caspase 3/7 activation”. The “Percentage of drug taken up by cells” value in data set [2] was 1.7%. Besides, the “Percentage of A549 positive cells to damage on DNA” value in data set [3] (8 μM) amounted to 2%; in data set [3] (16 μM), 30%; in data set [3] (24 μM) it was 87%. Moreover, in data set [4], the “Inhibition of total protein synthesis” value is given as “around 60%”. Further, the “Decrease on ATP levels” value in data set [5] is listed as “around 35%”.
